# Laboratory results published in publication PMC6843786, “Temporin-SHa and Its Analogs as Potential Candidates for the Treatment of Helicobacter pylori” (Biomolecules, 2019).
# Read-outs that look alike come from different tables or passages of the source. Non-standard residues stand in square brackets, D forms with d. Residues, ends and D or L forms follow the SMILES beside them.
# Experiments:
# H. pylori (ATCC 43504) [1] = test system: H. pylori (ATCC 43504)
# Description: (§1) Briefly, after the growth of H. pylori in liquid culture the optical density (OD) of the bacterial suspensions were read at 600 nm and adjusted to one. Stock solutions of the peptides at 1 mM were prepared in sterile water. Bacteria were diluted in medium to reach bacterial density around 10^5 bacteria/mL. One-hundred microliters per well of bacterial suspension were then added into sterile polypropylene 96-well microplates (Greiner BioOne, Paris, France) and exposed to increasing concentrations of peptides (from zero to 100 µM, 1:2 serial dilution). […] Plates were incubated at 37 °C for 24 h for H. pylori (ATCC 43504) and for 4–7 days for the clinical strains. H. pylori was tested in microaerophilic conditions generated using micro-anaerobic BD GasPak system. At the end of the incubation, OD600nm was measured using microplate reader (Synergy Mx, Biotek, Colmar, France). The MIC was defined as the lowest concentration of drug that inhibited visible growth of the organism. Experiments were conducted in independent triplicate (n = 3).
# (§2) It is also rich with mucus to protect it from the aggressive acidity. For this reason, the impact of mucins and pepsin on the activity of the peptides was investigated. The impact of the gastric mucins on peptide activity was evaluated using a combination of commercial porcine stomach mucins MUC2 and MUC3 (Sigma–Aldrich) at a final concentration of 1 mg/mL sterilized using 0.2 µm filter. This concentration was used based on the estimated concentration of mucins present in the mucus in vivo [27]. The effect of mucins on peptides activity was evaluated by MIC and by time killing assay as explained below. The resistance of the peptides to pepsin was tested as previously described with some changes. […] This concentration was used since it corresponds the pepsin concentration in the stomach (0.5–1 mg/mL).
# N87 cells = test: In vitro toxicity assay using human gastric cells (resazurin); format: cell-based
# Description: [26] Human gastric cells N87 (ATCC CRL-5822) were cultured in RPMI-1640 medium supplemented with 10% fetal calf serum (FCS), 1% L-glutamine and 1% antibiotics (all from Invitrogen, Carlsbad, CA, USA) and were routinely seeded onto 25 cm^2 flasks maintained in a 5% CO2 incubator at 37 °C. For the toxicity assay, cells grown on 25 cm^2 flasks were detached using trypsin–EDTA solution (from Thermofisher), counted using Mallasez counting chamber and seeded into 96-well cell culture plates (Greiner Bio-one) at approximately 10^4 cells per well. The cells were left to grow for 48–72 h at 37 °C in a 5% CO2 incubator until they reached confluence. Plates were then aspirated and increasing concentrations of peptides were added to the cells for 48 h at 37 °C in a 5% CO2 incubator, volume of water corresponding to the volume of peptides being used as negative control. At the end of the incubation, wells were aspirated, and cell viability was evaluated using resazurin-based in vitro toxicity assay kit (Sigma-Aldrich) following manufacturer’s instructions. Briefly, resazurin stock solution was diluted 1:10 in sterile PBS containing calcium and magnesium (PBS^++, pH 7.4) and empty wells were filled with 100 µL of the diluted solution. After 4 h incubation at 37 °C, fluorescence intensity was measured using microplate reader (Synergy Mx, Biotek) with an excitation wavelength of 530 nm and an emission wavelength of 590 nm. The fluorescence values were normalized by the controls and expressed as percent viability.
# [2] = test system: total lipids extracted from H. pylori (ATCC 43504); test: Lipid insertion assay (lipid monolayer, critical pressure of insertion); set-up: species or system biophysical; conditions: peptide 1 µM, PBS pH 7.4, from the line fits of Figure 4
# Description: Peptide-lipid interaction was measured using reconstituted lipid monolayer at the air-water interface as previously described. Total lipids were extracted from overnight cultures of H. pylori (ATCC 43504) using Folch extraction procedure as previously described. Extracted total lipids were dried, resolubilized in chloroform:methanol (2:1, v/v) and stored at -20 °C under nitrogen. For peptide-lipid interaction assay, total lipid extract was spread using a 50 μL Hamilton's syringe at the surface of 800 μL of sterile PBS creating a lipid monolayer at the air-water interface. Lipids were added until the surface pressure reached the desired value. […] The variation of the surface pressure caused by peptide injection was then continuously monitored using a fully automated microtensiometer (μTROUGH SX, Kibron Inc., Helsinki, Finland) until reaching equilibrium (maximal surface pressure increase being usually obtained after 15-25 min). […] Variation of surface pressure was plotted as a function of initial surface pressure and the critical pressure of insertion of each peptide into H. pylori lipids was calculated as the theoretical value of initial pressure of lipid monolayer not permissive to peptide insertion, i.e., giving a variation of pressure equal to 0 mN/m.
# H. pylori (ATCC 43504) [3] = test system: H. pylori (ATCC 43504); remark: listed apart in the source
# Text: (§3) H. pylori used in this study were either the reference strain obtained from the American Type Culture Collection (ATCC 43504) or clinical strains received frozen from our collaborator Josette Raymond from Hospital Cochin, Paris. Strains were obtained from patients who underwent a gastroendoscopy performed for various gastro-intestinal disorders according to the recommendations of Haute Autorité de Santé (HAS). During the endoscopy, biopsy samples were taken from antrum and corpus. Samples were then crushed, and the material was used for bacterial culture and molecular methods. An antibiogram was performed and strains were then frozen at -80 °C in a broth with 10% glycerol. Bacteria were cultured as previously described. Briefly, H. pylori (ATCC 43504) was cultured in brain heart infusion (BHI) and incubated at 37 °C for 16 h in microaerophilic condition in BD GasPak EZ using BD GasPak EZ CampyPak container system sachets (BD Biosciences, Le Pont-de-Claix, France). For clinical strains, a sample from the frozen bacteria was streaked on Blood Agar (Base) (Sigma-Aldrich, Illkirch-Graffenstaden, France) supplemented with 5% horse defibrinated blood (Fisher Scientific, Les Ulis, France) and 2% isovitale-X (Fisher Scientific, Illkirch-Graffenstaden, France). The petri dishes were then incubated at 37 °C for 4–7 days in microaerophilic condition. Then, a colony is transferred to 3 mL Mueller Hinton (MH) broth supplemented with 10% fetal bovine serum (FBS) and 2% isovitale-X. The cultures were then incubated for 4–7 days until the bacteria grow before further experiments.
# as §1
# [4] = test system: clinical strains of H. pylori; conditions: for MIC: MH + 10% FBS + 2% isovitale-X
# Text: as §3, §1
# H. pylori (ATCC 43504) [5] = test: MIC after digestion by pepsin (resistance to pepsin); conditions: 4 h at 37 °C with pepsin 1 mg/mL in HCl pH 2
# Description: as §1, §2
# H. pylori (ATCC 43504) [6] = test: Membrane permeabilization assay (propidium iodide); conditions: not told
# Description: Bacterial membrane permeabilization was evaluated using the cell-impermeable DNA/RNA probe propidium iodide as previously explained. Logarithmic growing bacterial suspension of H. pylori (ATCC 43504) was prepared from overnight bacterial suspension after 1:10 dilution. After 3 h incubation at 37 °C, in microaerophilic condition, bacterial suspensions were centrifuged for 5 min at 3000× g. Cell pellets were then resuspended in sterile PBS at about […]. Propidium iodide (solution at 1 mg/mL, Sigma Aldrich) was then added to the suspension at a final concentration of 60 µM. 100 µL of this suspension were then transferred into 96-well black plates and were exposed to increasing concentrations of peptides obtained by serial dilution (from zero to 100 µM, 1:2 dilution). […] Kinetics of fluorescence variations (excitation at 530 nm and emission at 590 nm) were then recorded over 240 min of incubation at 37 °C in micro-aerobic condition using a microplate reader (Biotek, Synergy Mx). The effect of the peptides on the membrane integrity was expressed in percentage of permeabilization, CTAB at 300 µM being used as positive control giving 100% permeabilization. All experiments were done in triplicate.
structure (smiles),measurement,setting,value
"CC[C@H](C)[C@H](NC(=O)[C@@H](C)NC(=O)[C@H](CO)NC(=O)[C@H](CC(C)C)NC(=O)[C@@H](N)Cc1ccccc1)C(=O)N[C@H](C(=O)NCC(=O)N[C@@H](CCSC)C(=O)N[C@@H](CC(C)C)C(=O)NCC(=O)N[C@@H](CCCCN)C(=O)N[C@@H](CC(C)C)C(=O)N[C@@H](Cc1ccccc1)C(N)=O)C(C)C [NST2, H-Phe^1-Leu^2-Ser^3-D-Ala^4-Ile^5-Val^6-Gly^7-Met^8-Leu^9-Gly^10-Lys^11-Leu^12-Phe^13-NH2] (H-FLS[dA]IVGMLGKLF-NH2)",increase of MIC in the presence of mucins,H. pylori (ATCC 43504) [1]; MUC2 and MUC3 at 1 mg/mL versus no mucins,two
same,MIC in the Presence of mucins,H. pylori (ATCC 43504) [1]; porcine gastric mucins MUC2 and MUC3 at 1 mg/mL,25 µM
same,IC50,"N87 cells; 48 h incubation, resazurin cell viability, read-out: IC50 on N87 Cells",1250 ± 240 µM
same,increase in toxicity to human gastric cells compared to temporin-SHa,N87 cells; from IC50 on N87 cells,around 1.2 fold
same,critical pressure of insertion (CPI),[2],37.86 mN/m
same,MIC on H. pylori (ATCC 43504),"H. pylori (ATCC 43504) [3]; MH medium, 24 h, microaerophilic",12.5 µM
same,MIC on H. pylori (ATCC 43504) in MH supplemented with 10% FBS,H. pylori (ATCC 43504) [3]; MH supplemented with 10% FBS,50 µM
same,reduction in the antibacterial activity compared to temporin-SHa,H. pylori (ATCC 43504) [3]; from MIC on H. pylori (ATCC 43504),4 times
same,MIC values against resistant clinical strains (span over all strains),"[4]; all resistant clinical strains, MH + 10% FBS",50 to 100 µM
same,MIC,"[4]; clinical strain BM18, resistance Clari/Metro",50 µM
same,MIC,"[4]; clinical strain EM68, resistance Clari/Metro",100 µM
same,MIC,"[4]; clinical strain LN18, resistance Clari",50 µM
same,MIC,"[4]; clinical strain MF76, resistance Clari/Metro",50 µM
same,MIC,"[4]; clinical strain MP78, resistance Clari/Metro",50 µM
same,MIC,"[4]; clinical strain MS67, resistance Clari/Metro",50 µM
same,MIC,"[4]; clinical strain NM44, resistance Clari/Metro",50 µM
same,MIC after Digestion by Pepsin,H. pylori (ATCC 43504) [5],>50 µM
"CC[C@H](C)[C@H](NC(=O)[C@@H](C)NC(=O)[C@H](CO)NC(=O)[C@H](CC(C)C)NC(=O)[C@@H](N)Cc1ccccc1)C(=O)N[C@H](C(=O)N[C@H](C)C(=O)N[C@@H](CCSC)C(=O)N[C@@H](CC(C)C)C(=O)N[C@H](C)C(=O)N[C@@H](CCCCN)C(=O)N[C@@H](CC(C)C)C(=O)N[C@@H](Cc1ccccc1)C(N)=O)C(C)C [NST5, H-Phe^1-Leu^2-Ser^3-D-Ala^4-Ile^5-Val^6-D-Ala^7-Met^8-Leu^9-D-Ala^10-Lys^11-Leu^12-Phe^13-NH2] (H-FLS[dA]IV[dA]ML[dA]KLF-NH2)",membrane permeabilization of H. pylori (ranking in words),H. pylori (ATCC 43504) [6],weakest permeabilization effect
same,increase in toxicity to human gastric cells compared to temporin-SHa,N87 cells,twice
same,IC50,N87 cells; 48 h,762 ± 235 µM
same,critical pressure of insertion (CPI),[2],33.99 mN/m
same,MIC on H. pylori (ATCC 43504),"H. pylori (ATCC 43504) [3]; ATCC 43504, 24 h",100 µM
"CC[C@H](C)[C@H](NC(=O)[C@H](C)NC(=O)[C@H](CO)NC(=O)[C@H](CC(C)C)NC(=O)[C@@H](N)Cc1ccccc1)C(=O)N[C@H](C(=O)NCC(=O)N[C@@H](CCSC)C(=O)N[C@@H](CC(C)C)C(=O)N[C@@H](C)C(=O)N[C@@H](CCCCN)C(=O)N[C@@H](CC(C)C)C(=O)N[C@@H](Cc1ccccc1)C(N)=O)C(C)C [NSTL7, H-Phe^1-Leu^2-Ser^3-L-Ala^4-Ile^5-Val^6-Gly^7-Met^8-Leu^9-L-Ala^10-Lys^11-Leu^12-Phe^13-NH2] (H-FLSAIVGMLAKLF-NH2)",membrane permeabilization of H. pylori (ranking in words),H. pylori (ATCC 43504) [6],weakest permeabilization effect
same,IC50,N87 cells; 48 h,2290 ± 762 µM
same,critical pressure of insertion (CPI),[2],not able to insert at all
same,MIC on H. pylori (ATCC 43504),"H. pylori (ATCC 43504) [3]; ATCC 43504, 24 h",50 µM
